Experimental data taken from patent US9133168B2, “Pyrimidine derivatives, preparation thereof, and pharmaceutical use thereof as akt(pkb) phosphorylation inhibitors” (SANOFI, priority 2010, dated 2015).

What follows are compounds tested on AKT protein phosphorylated on serine 473 (P-AKT-S473) in PC3 human prostate carcinoma cells (assay: pAKT expression in PC3 human prostate carcinoma cells, MSD Multi-spot Biomarker detection (Test A)). Conditions: Homo sapiens, PC-3.
Assay type: cell-based
Procedure: The inhibitory activity of the molecules on AKT phosphorylation is measured using the MSD Multi-spot Biomarker detection technique from Meso Scale Discovery also described below. […] The primary antibody specific for […]) is coated on to an electrode in each well of the 96-well plates of the MSD kit: after the addition of a protein lysate to each well, the signal is visualized by adding a secondary detection antibody labeled with an electrochemiluminescent compound. The procedure followed is the one described in the kit. […] On day 2, the cells are incubated in the presence or absence of the test products for 1 to 2 h at 37° C. in the presence of 5% CO2. The molecules, diluted in dimethyl sulfoxide (DMSO Sigma #D2650), are added from a 20-times concentrated stock solution, the final percentage of DMSO being 0.1%. The molecules are tested either at a single concentration of less than or equal to 10 μM, or at increasing concentrations in a range that can extend from less than 1 nM to 10 μM. After this incubation, the cells are lysed for the preparation of the proteins. […] At this stage, the plates containing the lysates can be frozen at -20° C. or at -80° C. The wells of the 96 well plates of the MSD kit are saturated for 1 h at ambient temperature with the blocking solution of the MSD kit. Four washes are carried out with 150 μl of Tris Wash Buffer of the MSD kit. The lysates previously prepared are transferred into the 96-well multi-spot plates of the MSD kit and incubated for 1 h at ambient temperature, with shaking. Four washes are carried out with 150 μl of Tris Wash Buffer of the MSD kit. 25 μl of the MSD sulfo-tag detection antibody solution are added to the wells and incubated for 1 h at ambient temperature, with shaking. Four washes are carried out with 150 μl of Tris Wash Buffer of the MSD kit. 150 μl of Read Buffer of the MSD kit are added to the wells and the plates are read immediately on the S12400 instrument from Meso Scale Discovery. The instrument measures a signal for each well. Wells without cells and containing the lysis buffer serve to determine the background noise that will be subtracted from all the measurements (min). The wells containing cells in the absence of product and in the presence of 0.1% DMSO are considered to be the 100% signal (max). The percentage inhibition is calculated for each concentration of product tested, according to the following formula: (1-((test-min)/(max-min)))×100. […] Two independent experiments make it possible to calculate the mean of the IC50 values.

SMILES	IC50
Cn1c(CC(=O)Nc2ccc(F)c(Cl)c2)nc(N2CCOC(CF)C2)cc1=O (single isomer, unassigned; (+)) [Example 5b, (+)-N-(3-chloro-4-fluorophenyl)-2-[4-(2-fluoromethylmorpholin-4-yl)-1-methyl-6-oxo-1,6-dihydropyrimidin-2-yl]acetamide]	0.127 µM

Same assay, conditions: Homo sapiens, PC-3, PC3 cells, 1 to 2 h incubation, P-AKT-S473, absolute IC50, mean of two independent experiments

SMILES	IC50
Cn1c(CC(=O)N2CC(C)(C)c3c(F)cccc32)nc(N2CCOCC2)cc1=O [Example 7c, 2-[2-(4-fluoro-3,3-dimethyl-2,3-dihydro-1H-indol-1-yl)-2-oxoethyl]-3-methyl-6-(morpholin-4-yl)pyrimidin-4(3H)-one]	0.045 µM
Nn1c(CC(=O)N2CCc3ccccc32)nc(N2CCOCC2)cc1=O [Example 41d, 3-amino-2-[2-(2,3-dihydro-1H-indol-1-yl)-2-oxoethyl]-6-(morpholin-4-yl)pyrimidin-4(3H)-one]	0.131 µM
C[C@@H]1Cc2ccccc2N1C(=O)Cc1nc(N2CCOCC2)c(F)c(=S)[nH]1 [Example 11e, 2-(5-fluoro-4-morpholin-4-yl-6-thioxo-1,6-dihydropyrimidin-2-yl)-1-((R)-2-methyl-2,3-dihydroindol-1-yl)ethanone]	0.061 µM
Cc1cc(-c2cc(=O)[nH]c(CC(=O)N3CCc4c(F)cccc43)n2)ccn1 [Example 23b, 2-[2-(4-fluoro-2,3-dihydroindol-1-yl)-2-oxoethyl]-6-(2-methylpyridin-4-yl)-3H-pyrimidin-4-one]	0.244 µM
C[C@H]1Cc2ccccc2N1C(=O)Cc1nc(N2CCOCC2)c(Br)c(=O)[nH]1 [Example 37a, 5-bromo-2-[2-((S)-2-methyl-2,3-dihydroindol-1-yl)-2-oxoethyl]-6-morpholin-4-yl-3H-pyrimidin-4-one]	0.056 µM
CS(=O)(=O)N1CCN(Cc2cccc3c2CCN3C(=O)Cc2nc(N3CCOCC3)cc(=O)[nH]2)CC1 [Example 17d, 2-[2-(4-{[4-(methylsulfonyl)piperazin-1-yl]methyl}-2,3-dihydro-1H-indol-1-yl)-2-oxoethyl]-6-(morpholin-4-yl)pyrimidin-4(3H)-one]	0.259 µM
O=C(Cc1nc(N2CCOCC2)c(F)c(=O)[nH]1)N1CCc2c(F)cccc21 [Example 1a, 5-fluoro-2-[2-(4-fluoro-2,3-dihydro-1H-indol-1-yl)-2-oxoethyl]-6-(morpholin-4-yl)pyrimidin-4(3H)-one]	0.022 µM
O=C(Cc1nc(N2CCOCC2)cc(=O)[nH]1)N1CCc2c1cccc2C(F)(F)F [Example 5d, 6-(morpholin-4-yl)-2-{2-oxo-2-[4-(trifluoromethyl)-2,3-dihydro-1H-indol-1-yl]ethyl}pyrimidin-4(3H)-one]	0.009 µM

More lines, now with the values ahead:

IC50	SMILES
0.06 µM	Cn1c(CC(=O)N2CCc3c(OC(F)F)cccc32)nc(N2CCOCC2)cc1=O [Example 8d, 2-{2-[4-(difluoromethoxy)-2,3-dihydro-1H-indol-1-yl]-2-oxoethyl}-3-methyl-6-(morpholin-4-yl)pyrimidin-4(3H)-one]
2.85 µM	O=C(Cc1nc(-c2ccnc(F)c2)cc(=O)[nH]1)N1CCc2c(F)cccc21 [Example 24b, 2-[2-(4-Fluoro-2,3-dihydroindol-1-yl)-2-oxoethyl]-6-(2-fluoropyridin-4-yl)-3H-pyrimidin-4-one]

Same assay, conditions: PC3 cells, 1 to 2 h incubation, P-AKT-S473, absolute IC50, mean of two independent experiments

SMILES	IC50
CC1Cc2ccc(F)cc2N1C(=O)Cc1nc(N2CCOCC2)cc(=O)[nH]1 (stereo not drawn) [Example 36c, 2-{2-[(−)-6-fluoro-2-methyl-2,3-dihydro-1H-indol-1-yl]-2-oxoethyl}-6-(morpholin-4-yl)pyrimidin-4(3H)-one]	0.009 µM
O=C(Cc1nc(N2CCOC(CO)C2)cc(=O)[nH]1)N1CCc2c(Cl)cccc21 (single isomer, unassigned; (-)) [Example 25b, (−)-2-[2-(4-Chloro-2,3-dihydroindol-1-yl)-2-oxoethyl]-6-(2-hydroxymethylmorpholin-4-yl)-3H-pyrimidin-4-one]	0.027 µM
O=C(Cc1nc(N2CCOCC2)cc(=O)[nH]1)N1c2ccccc2CC1c1ccccc1 (single isomer, unassigned; (+)) [Example 24d, (+)-6-(morpholin-4-yl)-2-{2-oxo-2-[2-phenyl-2,3-dihydro-1H-indol-1-yl]ethyl}pyrimidin-4(3H)-one]	0.205 µM
CC1Cc2c(ccc(F)c2Cl)N1C(=O)Cc1nc(N2CCOCC2)cc(=O)[nH]1 (single isomer, unassigned; (+)) [Example 37c, (+)-2-{2-[4-chloro-5-fluoro-2-methyl-2,3-dihydro-1H-indol-1-yl]-2-oxoethyl}-6-(morpholin-4-yl)pyrimidin-4(3H)-one]	0.007 µM
CC1Cc2c(Cl)cccc2N1C(=O)Cc1nc(N2CCOCC2)c(F)c(=O)n1C (stereo not drawn) [Example 29a, 5-fluoro-2-[2-((−)-4-chloro-2-methyl-2,3-dihydroindol-1-yl)-2-oxoethyl]-3-methyl-6-morpholin-4-yl-3H-pyrimidin-4-one]	0.02 µM
CCC1Cc2ccccc2N1C(=O)Cc1nc(N2CCOCC2)cc(=O)[nH]1 (single isomer, unassigned; (-)) [Example 43c, (−)-2-[2-(2-ethyl-2,3-dihydroindol-1-yl)-2-oxoethyl]-6-morpholin-4-yl-3H-pyrimidin-4-one]	0.014 µM
CC1Cc2c(OC(F)F)cccc2N1C(=O)Cc1nc(N2CCOCC2)cc(=O)n1C (single isomer, unassigned; (-)) [Example 32d, (−)-2-{2-[4-(difluoromethoxy)-2-methyl-2,3-dihydro-1H-indol-1-yl]-2-oxoethyl}-3-methyl-6-(morpholin-4-yl)pyrimidin-4(3H)-one]	0.06 µM

Results, then the compound that gave them:

IC50	SMILES
0.013 µM	CC1Cc2cc(F)ccc2N1C(=O)Cc1nc(N2CCOCC2)cc(=O)n1C (single isomer, unassigned; (-)) [Example 16c, (−)-2-{2-[5-fluoro-2-methyl-2,3-dihydro-1H-indol-1-yl]-2-oxoethyl}-3-methyl-6-(morpholin-4-yl)pyrimidin-4(3H)-one]
0.008 µM	CC1Cc2c(OC(F)F)cccc2N1C(=O)Cc1nc(N2CCOCC2)cc(=O)[nH]1 (single isomer, unassigned; (-)) [Example 30d, (−)-2-{2-[4-(difluoromethoxy)-2-methyl-2,3-dihydro-1H-indol-1-yl]-2-oxoethyl}-6-(morpholin-4-yl)pyrimidin-4(3H)-one]
0.015 µM	CC1Cc2c(Br)cccc2N1C(=O)Cc1nc(N2CCOCC2)c(F)c(=O)n1C (stereo not drawn) [Example 31a, 5-fluoro-2-[2-((−)-4-bromo-2-methyl-2,3-dihydroindol-1-yl)-2-oxoethyl]-3-methyl-6-morpholin-4-yl-3H-pyrimidin-4-one]
0.476 µM	CC1Cc2c(Cl)cccc2N1C(=O)Cc1nc(N2CCOCC2)c(F)c(=O)n1C (stereo not drawn) [Example 28a, 5-fluoro-2-[2-((+)-4-chloro-2-methyl-2,3-dihydroindol-1-yl)-2-oxoethyl]-3-methyl-6-morpholin-4-yl-3H-pyrimidin-4-one]
0.028 µM	CC1Cc2cc(F)ccc2N1C(=O)Cc1nc(N2CCOCC2)cc(=O)n1C (single isomer, unassigned; (+)) [Example 15c, (+)-2-{2-[5-fluoro-2-methyl-2,3-dihydro-1H-indol-1-yl]-2-oxoethyl}-3-methyl-6-(morpholin-4-yl)pyrimidin-4(3H)-one]
0.005 µM	CC1Cc2cc(F)ccc2N1C(=O)Cc1nc(N2CCOCC2)cc(=O)[nH]1 (single isomer, unassigned; (+)) [Example 13c, (+)-2-{2-[5-fluoro-2-methyl-2,3-dihydro-1H-indol-1-yl]-2-oxoethyl}-6-(morpholin-4-yl)pyrimidin-4(3H)-one]
0.003 µM	CC1Cc2cc(F)ccc2N1C(=O)Cc1nc(N2CCOCC2)c(F)c(=O)[nH]1 (stereo not drawn) [Example 7a, 5-fluoro-2-[2-((−)-5-fluoro-2-methyl-2,3-dihydroindol-1-yl)-2-oxoethyl]-6-morpholin-4-yl-3H-pyrimidin-4-one]
0.026 µM	CC1CN(c2cc(=O)[nH]c(CC(=O)Nc3ccc(F)cc3)n2)CCO1 (stereo not drawn) [Example 1b, N-(4-fluorophenyl)-2-[4-(2-methylmorpholin-4-yl)-6-oxo-1,6-dihydropyrimidin-2-yl]acetamide]
0.005 µM	CC1Cc2c(Cl)cccc2N1C(=O)Cc1nc(N2CCOCC2)cc(=O)[nH]1 (single isomer, unassigned; (+)) [Example 2c, (+)-2-{2-[4-chloro-2-methyl-2,3-dihydro-1H-indol-1-yl]-2-oxoethyl}-6-(morpholin-4-yl)pyrimidin-4(3H)-one]
